One test relates to LNCap. Kind of test: In vitro cell growth assay (MTS), LNCap. In kind it is cell-based. The note with it: LNCaP, 72 h, human prostate line, three days after drug treatment.
The next test has as its target mTOR (Homo sapiens, UniProt P42345). Kind of test: mTOR enzyme assay (DELFIA, purified FLAG-TOR, His6-S6K substrate). It counts as biochemical. Details: FLAG. The note with it: 100 μM ATP, 2 hours.
The test system of a further test is MDA468. Kind of test: In vitro cell growth assay (MTS), MDA468. In kind it is cell-based. As to conditions: 72 h, human breast line MDA468, three days after drug treatment, read-out: MDA IC50.
The target of a further test is PI3K-alpha (Homo sapiens, UniProt P42336). Kind of test: PI3K-alpha fluorescence polarization assay. In kind it is biochemical. As to conditions: 20 μM PIP2, 25 μM ATP; read-out: PI3Kα IC50. The method, boiled down: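 PIP2 (diC8) and ATP substrate with PI3K in 20 mM HEPES pH 7.5, 2 mM MgCl2, 0.05% CHAPS, 0.01% βME; 1% DMSO final; 30–60 min reaction. Stopped with EDTA plus GST-GRP (70 nM) and TAMRA probe (10 nM); FP (mP) read after 30–90 min, with no-enzyme controls.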
On the technique in general: In fluorescence polarisation assays a small probe gives low polarisation when free and higher when bound to something large.

In another test the target is PI3K-gamma (Homo sapiens, UniProt P48736). Kind of test: PI3K-gamma fluorescence polarization assay. In kind it is biochemical. The note with it: 20 μM PIP2, 25 μM ATP; read-out: PI3Kγ IC50. As to the method:
The reaction buffer was 20 mM HEPES, pH 7.5, 2 mM MgCl2, 0.05% CHAPS; and 0.01% βME (added fresh). The stop/detection buffer was 100 mM HEPES, pH 7.5, 4 mM EDTA, 0.05% CHAPS; ATP 20 mM in water; PIP2 (diC8, Echelon, Salt Lake City Utah cat #P-4508) 1 mM in water (MW=856.5). The GST-GRP was 1.75 mg/mL or 1.4 mg/mL in 10% glycerol. The red detector (TAMRA) was 2.5 μM. Nunc 384-well black polypropylene fluorescent plates were used for PI3K assays.
The assay is run by placing 5 μL of diluted enzyme per well, then 5 μL of diluted compound (or 9.5 μL enzyme then 0.5 μL compound in DMSO) is added and mixed. Then, 10 μL substrate is added to start the reaction. The samples are incubated 30-60 minutes, then the reaction is stopped by adding 20 μL stop/detector mix. PI3K is diluted with reaction buffer (e.g., 5 μL or 7.5 μL PI3K into 620 μL reaction buffer), and 5 μL of diluted enzyme is used per well. A 5 μL portion of reaction buffer or of drug diluted in buffer (e.g., 4 μL/100 so final DMSO is 1% in reaction) is added to each. Pipetting up and down mixes the samples. Alternatively, the enzyme can be diluted to 1215 μL. In this case 9.8 μL is added per well and 0.2 μL compound is added in DMSO.
To prepare 1 mL of substrate solution, 955 μL reaction buffer, 40 μL PIP2, and 2.5 μL ATP are mixed. 10 μL of substrate is added to each well to start the reaction. […] The stop/detector mix is prepared by mixing 4 μL red detector and 1.6 μL or 2.0 μL GST-GRP with 1 mL stop buffer, which results in 10 nM probe and 70 nM GST-GRP. 20 μL of the stop/detector mix is added to each well to stop the reaction. The plates are read after 30-90 minutes keeping the red probe solutions dark. For the zero time point, stop/detector mix is added to the enzyme just before adding substrate. For an extra control, stop/detector mix is added to buffer (no enzyme) and substrate or to just buffer (no substrate). […] The recommended reaction has 0.06 μL per 20 μL (0.015 μg/20 μL) or 0.01125 μg/15 μL or 0.75 μg/mL.
Plates are read on machines with filters for TAMRA. The units are mP with no enzyme controls reading app 190-220 mP units. Fully active enzyme reduces fluorescence polarization down to 70-100 mP after 30 minutes. An active compound raises the mP values halfway to control or to 120-150 mP units.

Broadly, the IC50 is the concentration that inhibits the measured activity by half.

Sequence of PI3K-gamma (P48736 whole entry, species assumed): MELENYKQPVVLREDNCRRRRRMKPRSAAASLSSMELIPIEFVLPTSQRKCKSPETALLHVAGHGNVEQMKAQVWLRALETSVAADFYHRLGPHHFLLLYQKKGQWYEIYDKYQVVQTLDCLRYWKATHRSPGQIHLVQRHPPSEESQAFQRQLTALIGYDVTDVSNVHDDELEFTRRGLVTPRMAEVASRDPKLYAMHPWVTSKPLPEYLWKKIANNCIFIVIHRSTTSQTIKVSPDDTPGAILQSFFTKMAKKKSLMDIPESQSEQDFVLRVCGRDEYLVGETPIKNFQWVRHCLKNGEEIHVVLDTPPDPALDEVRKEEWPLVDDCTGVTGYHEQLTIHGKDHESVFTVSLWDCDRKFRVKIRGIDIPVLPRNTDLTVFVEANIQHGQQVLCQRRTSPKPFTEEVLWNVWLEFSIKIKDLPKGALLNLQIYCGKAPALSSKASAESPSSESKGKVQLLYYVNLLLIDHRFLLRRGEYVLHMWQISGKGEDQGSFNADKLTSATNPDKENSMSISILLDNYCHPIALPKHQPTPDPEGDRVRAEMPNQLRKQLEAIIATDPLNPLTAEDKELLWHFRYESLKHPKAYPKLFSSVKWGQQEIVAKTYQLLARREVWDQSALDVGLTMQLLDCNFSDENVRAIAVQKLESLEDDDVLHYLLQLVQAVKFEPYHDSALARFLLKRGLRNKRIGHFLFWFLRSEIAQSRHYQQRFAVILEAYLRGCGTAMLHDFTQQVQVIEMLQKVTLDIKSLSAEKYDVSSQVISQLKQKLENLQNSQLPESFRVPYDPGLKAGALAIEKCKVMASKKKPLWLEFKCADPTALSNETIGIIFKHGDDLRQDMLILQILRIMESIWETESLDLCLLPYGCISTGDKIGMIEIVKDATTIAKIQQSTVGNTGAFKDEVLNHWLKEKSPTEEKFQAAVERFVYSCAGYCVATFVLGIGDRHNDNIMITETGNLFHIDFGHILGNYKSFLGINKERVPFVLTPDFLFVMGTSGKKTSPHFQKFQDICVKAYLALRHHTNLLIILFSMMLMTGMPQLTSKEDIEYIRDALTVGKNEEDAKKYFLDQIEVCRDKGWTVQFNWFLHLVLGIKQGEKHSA
Sequence of mTOR (P42345 1360-2549 limits assumed): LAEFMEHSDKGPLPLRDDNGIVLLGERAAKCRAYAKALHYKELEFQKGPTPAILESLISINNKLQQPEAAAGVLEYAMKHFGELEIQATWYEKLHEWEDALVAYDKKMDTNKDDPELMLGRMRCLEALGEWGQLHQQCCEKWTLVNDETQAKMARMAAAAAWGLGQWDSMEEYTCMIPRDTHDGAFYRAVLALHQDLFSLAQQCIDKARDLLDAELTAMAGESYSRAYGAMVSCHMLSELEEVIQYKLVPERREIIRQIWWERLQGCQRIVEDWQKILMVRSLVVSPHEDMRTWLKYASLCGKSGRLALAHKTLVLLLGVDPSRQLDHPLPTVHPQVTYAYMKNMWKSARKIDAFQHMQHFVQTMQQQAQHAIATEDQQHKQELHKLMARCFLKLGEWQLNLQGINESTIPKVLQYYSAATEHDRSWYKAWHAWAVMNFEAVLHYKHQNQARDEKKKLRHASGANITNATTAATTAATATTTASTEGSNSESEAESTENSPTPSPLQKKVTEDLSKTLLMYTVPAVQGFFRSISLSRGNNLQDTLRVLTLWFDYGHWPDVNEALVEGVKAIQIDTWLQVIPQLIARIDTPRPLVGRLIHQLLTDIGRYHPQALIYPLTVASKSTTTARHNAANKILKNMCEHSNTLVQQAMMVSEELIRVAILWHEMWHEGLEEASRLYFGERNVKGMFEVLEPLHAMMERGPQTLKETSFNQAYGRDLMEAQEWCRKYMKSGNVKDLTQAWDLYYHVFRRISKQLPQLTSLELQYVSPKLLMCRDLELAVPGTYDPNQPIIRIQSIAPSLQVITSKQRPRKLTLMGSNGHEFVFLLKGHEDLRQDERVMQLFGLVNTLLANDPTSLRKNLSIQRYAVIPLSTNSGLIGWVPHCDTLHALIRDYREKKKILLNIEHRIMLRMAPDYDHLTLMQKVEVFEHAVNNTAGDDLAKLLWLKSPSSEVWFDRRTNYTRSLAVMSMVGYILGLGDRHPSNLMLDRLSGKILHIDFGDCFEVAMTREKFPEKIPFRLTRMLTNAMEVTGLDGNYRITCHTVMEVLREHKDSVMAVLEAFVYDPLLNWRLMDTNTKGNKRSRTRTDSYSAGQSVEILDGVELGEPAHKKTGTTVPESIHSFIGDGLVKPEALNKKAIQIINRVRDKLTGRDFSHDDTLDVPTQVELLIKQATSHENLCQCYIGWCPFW
Sequence of PI3K-alpha (P42336 whole entry, species assumed): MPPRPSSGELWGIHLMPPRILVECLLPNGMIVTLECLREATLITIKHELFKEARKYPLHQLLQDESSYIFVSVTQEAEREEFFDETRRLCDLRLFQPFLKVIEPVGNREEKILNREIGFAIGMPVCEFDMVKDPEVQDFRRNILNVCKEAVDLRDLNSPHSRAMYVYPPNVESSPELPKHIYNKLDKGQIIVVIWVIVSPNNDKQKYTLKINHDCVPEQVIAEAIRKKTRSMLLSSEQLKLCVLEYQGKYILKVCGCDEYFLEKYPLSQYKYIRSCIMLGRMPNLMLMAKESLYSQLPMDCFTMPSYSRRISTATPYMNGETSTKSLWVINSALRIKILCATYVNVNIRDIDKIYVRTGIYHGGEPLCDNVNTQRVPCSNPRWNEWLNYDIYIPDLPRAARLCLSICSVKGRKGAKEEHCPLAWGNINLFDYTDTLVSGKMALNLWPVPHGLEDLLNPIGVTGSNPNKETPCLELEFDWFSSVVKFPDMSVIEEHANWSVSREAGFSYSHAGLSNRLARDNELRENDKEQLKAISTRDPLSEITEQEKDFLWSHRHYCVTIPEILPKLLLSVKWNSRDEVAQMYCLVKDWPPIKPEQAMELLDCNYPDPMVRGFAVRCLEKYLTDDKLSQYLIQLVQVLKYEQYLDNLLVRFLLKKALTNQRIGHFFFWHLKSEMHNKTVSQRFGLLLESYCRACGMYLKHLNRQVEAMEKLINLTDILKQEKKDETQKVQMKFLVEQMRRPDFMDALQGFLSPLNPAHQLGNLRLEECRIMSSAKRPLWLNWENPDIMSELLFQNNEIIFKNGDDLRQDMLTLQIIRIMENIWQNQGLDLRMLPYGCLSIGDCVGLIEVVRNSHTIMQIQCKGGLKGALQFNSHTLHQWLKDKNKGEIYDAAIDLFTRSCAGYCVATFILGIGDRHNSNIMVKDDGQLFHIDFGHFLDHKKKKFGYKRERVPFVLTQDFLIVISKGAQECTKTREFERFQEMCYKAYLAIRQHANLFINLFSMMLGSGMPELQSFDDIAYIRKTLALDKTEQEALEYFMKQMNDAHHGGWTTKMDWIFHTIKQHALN
Sequence of PI3K-alpha (P27986 whole entry partner, species assumed): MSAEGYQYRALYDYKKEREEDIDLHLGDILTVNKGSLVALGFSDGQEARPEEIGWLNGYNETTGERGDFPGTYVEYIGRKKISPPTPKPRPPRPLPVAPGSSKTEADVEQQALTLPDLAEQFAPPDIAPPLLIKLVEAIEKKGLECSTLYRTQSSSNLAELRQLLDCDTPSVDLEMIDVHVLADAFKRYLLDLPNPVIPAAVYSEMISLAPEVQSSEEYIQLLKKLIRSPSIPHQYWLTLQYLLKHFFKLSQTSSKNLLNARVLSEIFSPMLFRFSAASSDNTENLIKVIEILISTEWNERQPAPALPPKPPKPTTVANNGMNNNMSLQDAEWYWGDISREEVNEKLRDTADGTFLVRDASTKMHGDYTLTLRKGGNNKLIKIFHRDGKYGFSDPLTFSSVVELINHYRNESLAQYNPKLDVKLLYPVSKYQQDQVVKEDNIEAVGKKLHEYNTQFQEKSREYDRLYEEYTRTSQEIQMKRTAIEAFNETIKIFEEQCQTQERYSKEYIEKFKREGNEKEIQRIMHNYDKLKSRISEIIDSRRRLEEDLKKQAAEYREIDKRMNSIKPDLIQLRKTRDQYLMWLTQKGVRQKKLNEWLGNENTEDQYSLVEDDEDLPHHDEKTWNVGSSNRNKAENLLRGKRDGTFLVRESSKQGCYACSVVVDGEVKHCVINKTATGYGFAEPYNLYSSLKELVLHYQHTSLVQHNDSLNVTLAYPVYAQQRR

`CC(C)Nc1cc(N2C3COCC2COC3)nc(-c2ccc(NC(=O)Nc3ccc(OCCN(C)C)cc3)cc2)n1` [1-{4-[2-(dimethylamino)ethoxy]phenyl}-3-{4-[4-(3,7-dioxa-9-azabicyclo[3.3.1]non-9-yl)-6-(isopropylamino)pyrimidin-2-yl]phenyl}urea]: the IC50 with LNCap worked out at 420 nM; against mTOR, 16.5 nM; in the test on MDA468 it was 600 nM; at PI3K-alpha it was 1760 nM; at PI3K-gamma, 8630 nM.
The matching figures for `C[C@@H]1COCCN1c1cc(N2C3CCC2COC3)nc(-c2ccc(NC(=O)Nc3ccncc3)cc2)n1` [1-(4-{4-[(3R)-3-methylmorpholin-4-yl]-6-(3-oxa-8-azabicyclo[3.2.1]oct-8-yl)pyrimidin-2-yl}phenyl)-3-pyridin-4-ylurea]: 1 nM, 0.645 nM, 5 nM, 314 nM and 778 nM.
The matching figures for `O=C(Nc1ccc(-c2nc(N3C4CCC3COC4)c(Cl)c(N3C4CCC3COC4)n2)cc1)Nc1cccnc1` [1-[4-(5-chloro-4,6-di-3-oxa-8-azabicyclo[3.2.1]oct-8-ylpyrimidin-2-yl)phenyl]-3-pyridin-3-ylurea]: 48 nM, 0.655 nM, 220 nM, 922 nM and 932 nM.
In the case of `CC(C)Nc1cc(N2C3COCC2COC3)nc(-c2ccc(NC(=O)Nc3ccc(N4CCN(C)CC4)cc3)cc2)n1` [1-{4-[4-(3,7-dioxa-9-azabicyclo[3.3.1]non-9-yl)-6-(isopropylamino)pyrimidin-2-yl]phenyl}-3-[4-(4-methylpiperazin-1-yl)phenyl]urea], the IC50 with LNCap worked out at 280 nM; against mTOR, 14.5 nM; in the test with MDA468, 320 nM; at PI3K-alpha, 1510 nM; at PI3K-gamma it was 7890 nM.
`CN1CCN(c2ccc(NC(=O)Nc3ccc(-c4nc(N5C6CCC5COC6)cc(N5C[C@@H]6C[C@H]5CO6)n4)cc3)cc2)CC1` [1-[4-(4-methylpiperazin-1-yl)phenyl]-3-(4-{4-[(1S,4S)-2-oxa-5-azabicyclo[2.2.1]hept-5-yl]-6-(3-oxa-8-azabicyclo[3.2.1]oct-8-yl)pyrimidin-2-yl}phenyl)urea]: the IC50 in the test on LNCap was 10 nM; against mTOR it was 9.75 nM; in the test on MDA468 it was 18 nM; at PI3K-alpha it was 1780 nM; on PI3K-gamma, not below 10000 nM.
The matching figures for `CC(C)N1CCN(C(=O)c2ccc(NC(=O)Nc3ccc(-c4nc(N5C6CCC5COC6)cc(N5CCOC[C@H]5C)n4)cc3)cc2)CC1` [1-(4-{[4-(1-methylethyl)piperazin-1-yl]carbonyl}phenyl)-3-(4-{4-[(3R)-3-methylmorpholin-4-yl]-6-(3-oxa-8-azabicyclo[3.2.1]oct-8-yl)pyrimidin-2-yl}phenyl)urea]: not above 0.8 nM, 0.6 nM, 0.8 nM, 123 nM and 1200 nM.
Taken in the same sequence, the figures for `CN1CCN(c2ccc(NC(=O)Nc3ccc(-c4nc(NCCS(C)(=O)=O)cc(N5C6CCC5COC6)n4)cc3)cc2)CC1` [1-[4-(4-methylpiperazin-1-yl)phenyl]-3-{4-[4-{[2-(methylsulfonyl)ethyl]amino}-6-(3-oxa-8-azabicyclo[3.2.1]oct-8-yl)pyrimidin-2-yl]phenyl}urea] were 17 nM, 14.5 nM, 19 nM, 1840 nM and not below 10000 nM.
Taken in the same sequence, the figures for `CN(C)Cc1ccc(NC(=O)Nc2ccc(-c3nc(N4C5CCC4COC5)cc(N4C[C@@H]5C[C@H]4CO5)n3)cc2)cc1` [1-{4-[(dimethylamino)methyl]phenyl}-3-(4-{4-[(1S,4S)-2-oxa-5-azabicyclo[2.2.1]hept-5-yl]-6-(3-oxa-8-azabicyclo[3.2.1]oct-8-yl)pyrimidin-2-yl}phenyl)urea] were 60 nM, 16 nM, 150 nM, 1240 nM and not below 10000 nM.
On to `CN1CCN(Cc2ccc(NC(=O)Nc3ccc(-c4nc(NC5CCOCC5)cc(N5C6CCC5COC6)n4)cc3)cc2)CC1` [1-{4-[(4-methylpiperazin-1-yl)methyl]phenyl}-3-{4-[4-(3-oxa-8-azabicyclo[3.2.1]oct-8-yl)-6-(tetrahydro-2H-pyran-4-ylamino)pyrimidin-2-yl]phenyl}urea], for which the IC50 with LNCap worked out at 40 nM; against mTOR, 6.3 nM; in the test on MDA468, 65 nM; on PI3K-alpha it was 931 nM; on PI3K-gamma it was 2180 nM.
Taken in the same sequence, the figures for `O=C(Nc1ccncc1)Nc1ccc(-c2nc(C3CCOCC3)cc(N3C4CCC3COC4)n2)cc1` [1-{4-[4-(3-oxa-8-azabicyclo[3.2.1]oct-8-yl)-6-(tetrahydro-2H-pyran-4-yl)pyrimidin-2-yl]phenyl}-3-pyridin-4-ylurea] were not above 0.8 nM, 0.365 nM, 4 nM, 1780 nM and 7980 nM.
Taken in the same sequence, the figures for `O=C(Nc1ccncc1)Nc1ccc(-c2nc(N3C4CCC3COC4)cc(N3C[C@H]4C[C@@H]3CO4)n2)cc1` [1-(4-{4-[(1R,4R)-2-oxa-5-azabicyclo[2.2.1]hept-5-yl]-6-(3-oxa-8-azabicyclo[3.2.1]oct-8-yl)pyrimidin-2-yl}phenyl)-3-pyridin-4-ylurea] were 90 nM, 2.25 nM, 110 nM, 1890 nM and 7430 nM.
The matching figures for `CS(=O)(=O)CCNc1cc(N2C3CCC2COC3)nc(-c2ccc(NC(=O)Nc3cccnc3)cc2)n1` [1-{4-[4-{[2-(methylsulfonyl)ethyl]amino}-6-(3-oxa-8-azabicyclo[3.2.1]oct-8-yl)pyrimidin-2-yl]phenyl}-3-pyridin-3-ylurea]: 2000 nM, 5 nM, 800 nM, 1640 nM and not below 10000 nM.
For `O=C(Nc1ccc(-c2nc(NC3CCOCC3)cc(N3C4CCC3COC4)n2)cc1)Nc1cccnc1` [1-{4-[4-(3-oxa-8-azabicyclo[3.2.1]oct-8-yl)-6-(tetrahydro-2H-pyran-4-ylamino)pyrimidin-2-yl]phenyl}-3-pyridin-3-ylurea], the IC50 in the test with LNCap is 50 nM; against mTOR it was 3.3 nM; in the test with MDA468, 160 nM; on PI3K-alpha, 2680 nM; at PI3K-gamma it was not below 10000 nM.
The matching figures for `CN(C)CCOc1ccc(NC(=O)Nc2ccc(-c3nc(NCCS(C)(=O)=O)cc(N4C5CCC4COC5)n3)cc2)cc1` [1-{4-[2-(dimethylamino)ethoxy]phenyl}-3-{4-[4-{[2-(methylsulfonyl)ethyl]amino}-6-(3-oxa-8-azabicyclo[3.2.1]oct-8-yl)pyrimidin-2-yl]phenyl}urea]: 480 nM, 26 nM, 420 nM, 1860 nM and not below 10000 nM.
The matching figures for `CNC(=O)Nc1ccc(-c2nc(CN(C)C)cc(N3C4CCC3COC4)n2)cc1` [1-(4-{4-[(dimethylamino)methyl]-6-(3-oxa-8-azabicyclo[3.2.1]oct-8-yl)pyrimidin-2-yl}phenyl)-3-methylurea]: 3600 nM, 77 nM, 7000 nM, 8000 nM and more than 10000 nM.

The record behind these values is patent US8835429B2, “Pyrimidine compounds, their use as mTOR kinase and Pl3 kinase inhibitors, and their syntheses” (Wyeth LLC, priority 2009, dated 2014).
